Consider 9 molecules from ChEMBL document CHEMBL4613224, “Synthesis, in-vitro antiprotozoal activity and molecular docking study of isothiocyanate derivatives” (Bioorg Med Chem, 2020).

Data set [1] deals with Trypanosoma cruzi. Description: Antitrypanosomal activity against Trypanosoma cruzi Tulahuen C4 trypomastigotes infected in rat L6 cells assessed as parasite growth inhibition at 2 ug/ml measured after 96 hrs by inverted microscopy analysis relative to control. In kind it is functional. The settings on record: for inhibition at 2 µg/mL: Tulahuen C4, L6, 96 h.
Data set [2] in a line: Selectivity index, ratio of IC50 for rat L6 cells assessed as reduction in cell viability measured after 72 hrs by Alamar blue based inverted microscopy analysis to IC50 for Leishmania donovani MHOM-ET-67/L82 axenic amastigotes assessed as parasite growth inhibition measured after 72 hrs by Alamar blue based inverted microscopy analysis. In kind it is toxicity. The settings on record: L6 cells, read-out: Ratio IC50. On the technique in general: Alamar Blue is a resazurin reagent that responds to reducing activity.

The test system of data set [3] is Trypanosoma brucei rhodesiense. Description: Antitrypanosomal activity against bloodstream Trypanosoma brucei rhodesiense STIB900 assessed as parasite growth inhibition measured after 70 hrs by Alamar blue assay. The settings on record: STIB900, 70 h. It counts as functional, organism-based.
In data set [4] the test system is Leishmania donovani. Description: Antileishmanial activity against Leishmania donovani MHOM-ET-67/L82 axenic amastigotes assessed as parasite growth inhibition measured after 72 hrs by Alamar blue based inverted microscopy analysis. It counts as functional, organism-based. The settings on record: MHOM-ET-67/L82, 72 h.
Data set [5] concerns Leishmania donovani. Description: Antileishmanial activity against Leishmania donovani MHOM-ET-67/L82 axenic amastigotes assessed as parasite growth inhibition at 2 to 10 ug/ml measured after 72 hrs by Alamar blue based inverted microscopy analysis relative to control. It counts as functional.
The test system of data set [6] is Trypanosoma brucei rhodesiense. Nature of the data set: Antitrypanosomal activity against bloodstream Trypanosoma brucei rhodesiense STIB900 assessed as parasite growth inhibition at 2 ug/ml measured after 70 hrs by Alamar blue assay relative to control. In kind it is functional. The settings on record: STIB900, 70 h.
The subject of data set [7] is Plasmodium falciparum. Description: Antiplasmodial activity against Plasmodium falciparum NF54 measured after 24 hrs in presence of [3H] hypoxanthine by liquid scintillation counter analysis. In kind it is functional, organism-based.
For data set [8], the system named is L6. Description: Cytotoxicity against rat L6 cells assessed as reduction in cell viability measured after 72 hrs by Alamar blue based inverted microscopy analysis. The settings on record: L6, 72 h, read-out: IC50.
Data set [9] is described as follows: Selectivity index, ratio of IC50 for rat L6 cells assessed as reduction in cell viability measured after 72 hrs by Alamar blue based inverted microscopy analysis to IC50 for Trypanosoma cruzi Tulahuen C4 trypomastigotes infected in rat L6 cells assessed as parasite growth inhibition measured after 96 hrs by inverted microscopy analysis. It counts as toxicity. The settings on record: read-out: Ratio IC50.

The nature of data set [10]: Selectivity index, ratio of IC50 for rat L6 cells assessed as reduction in cell viability measured after 72 hrs by Alamar blue based inverted microscopy analysis to IC50 for Plasmodium falciparum NF54 measured after 24 hrs in presence of [3H] hypoxanthine by liquid scintillation counter analysis. In kind it is toxicity. The settings on record: read-out: Ratio IC50.
The subject of data set [11] is Trypanosoma cruzi. Description: Antitrypanosomal activity against Trypanosoma cruzi Tulahuen C4 trypomastigotes infected in rat L6 cells assessed as parasite growth inhibition measured after 96 hrs by inverted microscopy analysis. The settings on record: Tulahuen C4, L6, 96 h. It counts as functional, organism-based.
The nature of data set [12]: Selectivity index, ratio of IC50 for rat L6 cells assessed as reduction in cell viability measured after 72 hrs by Alamar blue based inverted microscopy analysis to IC50 for bloodstream Trypanosoma brucei rhodesiense STIB900 assessed as parasite growth inhibition measured after 70 hrs by Alamar blue assay. In kind it is toxicity. The settings on record: read-out: Ratio IC50.

Data set [13] deals with Trypanosoma brucei brucei. Description: Antitrypanosomal activity against Trypanosoma brucei brucei assessed as parasite growth inhibition. In kind it is functional, organism-based.
The subject of data set [14] is Plasmodium falciparum. Nature of the data set: Antiplasmodial activity against Plasmodium falciparum K1 assessed as reduction in parasite growth by [3H]-hypoxanthine incorporation assay. It counts as functional, organism-based.
Data set [15] relates to Leishmania donovani. Description: Potency index, ratio of miltefosine IC50 to test compound IC50 for antileishmanial activity against Leishmania donovani MHOM-ET-67/L82 axenic amastigotes assessed as parasite growth inhibition measured after 72 hrs by Alamar blue based inverted microscopy analysis. In kind it is functional.

The source made the active and inactive calls. The calls are words filed in the database; no cut-off is given here.

The inhibition is the percentage by which the read-out fell short of the control. As usually defined, the IC50 is the point on the concentration scale where inhibition reaches its midpoint.

As for `COc1ccc2c(c1OC)CO[C@@H]2[C@H]1c2c(cc3c(c2OC)OCO3)CCN1C(CN=C=S)c1cccnc1` (some centres undefined), the figures for the inhibition at 2 µg/mL in [1] and in data set [6] were 100% and more than 50%, respectively. In addition, the selectivity ratio at 72 h came to 8 in [2], 3.8 in [9], 2.9 in data set [10] and 2.6 in data set [12]. In addition, the concentration for half-maximal inhibition (IC50) in data set [3] is 2.7 µM; in [4] it was 0.9 µM; in data set [7] it was 2.5 µM; in data set [8], 7.1 µM; in data set [11], 1.9 µM. The “inhibition (INH)” value in data set [5] was more than 90%.
In the case of `CC(C)=C[C@H]1C[C@H](/C=C/c2[nH]c3ccccc3c2CCN(C)C)n2c1c(CCN(C)C)c1ccccc12`, the IC50 in [13] is 6.2 µM.
`COc1ccc([C@H](O)[C@H]2c3c(cc4c(c3OC)OCO4)CCN2C)c(CO)c1OC`: the IC50 in [14] amounted to 8 µM.
In the case of `O=C(Cn1ccnc1[N+](=O)[O-])NCc1ccccc1` [BENZNIDAZOLE], the selectivity ratio at 72 h in [2] was 196; in data set [9], more than 158. Moreover, the figures for the half-maximal inhibitory concentration (IC50) in data set [8] and in data set [11] were more than 380 µM and 2.41 µM, respectively.
On to `COc1ccc2c(c1OC)CO[C@@H]2[C@H]1c2c(cc3c(c2OC)OCO3)CCN1[C@@H](CN)c1ccc(F)cc1`, for which the inhibition at 2 µg/mL in data set [1] is 53%; in data set [6], more than 50%. Further, the IC50 in data set [3] is 1.3 µM; in data set [7], 2.7 µM; in data set [8] it was 38.8 µM; in data set [11], 10.6 µM. Further, the selectivity ratio at 72 h in [9] was found to be 3.7; in [10], 14.5; in [12], 29.3.
Take `C[C@@H](CCCN=C=S)[C@H]1CC[C@H]2[C@@H]3CC[C@@H]4C[C@H](O)CC[C@]4(C)[C@H]3C[C@H](O)[C@]12C`: in data set [1], the inhibition result was “inactive”. For the same molecule, the selectivity ratio at 72 h in data set [2] was determined as 9.9; in data set [10], 1.1; in [12] it was 3.3. In addition, the “Ratio IC50” value in [15] worked out at 2. Also, the IC50 was 1.1 µM in data set [3], 0.4 µM in data set [4], 3.4 µM in data set [7] and 3.6 µM in [8]. The “inhibition (INH)” value in data set [5] was more than 90%. The inhibition at 2 µg/mL in data set [6] is more than 50%.
For `CC(C)c1ccc2c(c1)CC[C@H]1[C@](C)(CN=C=S)CCC[C@]21C`, in data set [1], the inhibition entry was “inactive”. The figures for the selectivity ratio at 72 h in data set [2], in [10] and in data set [12] were 2.4, 9.4 and 1.8, respectively. Moreover, the IC50 is 5.7 µM in [3], 4.2 µM in data set [4], 1.1 µM in data set [7] and 10 µM in [8]. The “inhibition (INH)” value in data set [5] is listed as more than 90%. Moreover, the inhibition at 2 µg/mL in data set [6] is more than 50%.
Take `S=C=NCCc1c[nH]c2ccccc12`: in [1], the inhibition result is “inactive”. Further, the selectivity ratio at 72 h in [2] was 4.2; in data set [10] it was 0.7; in [12] it was 1.8. The half-maximal inhibitory concentration (IC50) worked out at 4 µM in data set [3], 1.7 µM in data set [4], 10.3 µM in data set [7] and 7.1 µM in [8]. The “inhibition (INH)” value in data set [5] is recorded as more than 90%. Besides, the inhibition at 2 µg/mL in [6] was more than 50%.
As to `CNCCc1c([C@H]2[C@H]3[C@H](C=C(C)CC3(C)C)c3c(CCNC)c4ccccc4n32)[nH]c2ccccc12`, the IC50 in [13] was found to be 2.8 µM.
